Measured values as given in ChEMBL document CHEMBL1126373, “HIV and reverse transcriptase inhibition by tannins” (Bioorg Med Chem Lett, 1992).
pEC50, pIC50: −log10 of the molar value.

Tests used:
[1] = target: Human immunodeficiency virus type 1 reverse transcriptase (Human immunodeficiency virus 1) (UniProt Q72547); experiment: Inhibition against HIV- reverse transcriptase in cell culture at 20 ug/mL
[2] = test system: Human immunodeficiency virus 1; experiment: Inhibition against HIV replication in cell culture at 20 ug/mL; assay type: functional; details: Human immunodeficiency virus 1
[3] = test system: Human immunodeficiency virus 1; experiment: Anti-HIV activity in cell culture assay expressed as IC50 values.; assay type: functional, organism-based
[4] = test system: Human immunodeficiency virus 1; experiment: Therapeutic index was determined; details: read-out: Therapeutic index
[5] = test system: Human immunodeficiency virus 1; experiment: Anti-HIV activity in cell culture assay expressed as EC50 values.; assay type: functional, organism-based; details: Human immunodeficiency virus 1

SMILES | inhibition [1] [%] | inhibition at 20 µg/mL [2] [%] | pIC50 ([3]; Human immunodeficiency virus 1) | selectivity ratio [4] | pEC50 [5] | pIC50 [3]
O=C(OC[C@H]1O[C@@H](OC(=O)c2cc(O)c(O)c(O)c2)[C@H](OC(=O)c2cc(O)c(O)c(O)c2)[C@@H](OC(=O)c2cc(O)c(O)c(O)c2)[C@@H]1OC(=O)c1cc(O)c(O)c(O)c1)c1cc(O)c(O)c(O)c1 (stereo in doubt; 11) | 0 | – | – | – | – | –
O=C1O[C@H]2[C@@H]3OC(=O)c4cc(O)c(O)c(O)c4-c4c(cc(O)c(O)c4O)C(=O)OC[C@H]2O[C@@H](OC(=O)c2cc(O)c(O)c(O)c2)[C@@H]3OC(=O)c2cc(O)c(O)c3c2[C@@H]2C1=CC(=O)C(O)(O)C2(O)O3 (stereo partly specified) | 15 | 92 | 4.85 | 1.2 | 4.92 | –
O=C1OCC2OC(=O)c3cc(O)c(O)c(O)c3-c3c(O)c(O)c(O)c4c3C(=O)OC(C2OC(=O)c2cc(O)c(O)c(O)c2-c2c1cc(O)c(O)c2O)C1OC(=O)C2C4=C(O)C(=O)C23Oc2cc(O)c4c(c2[C@H]13)O[C@H](c1ccc(O)c(O)c1)[C@@H](O)C4 (stereo partly specified) | 23 | 89 | 4.82 | 3.8 | 5.40 | –
O=C1O[C@H]2[C@H](O)[C@@H](OC(=O)c3cc(O)c(O)c4c3[C@@H]3C1=CC(=O)C(O)(O)C3(O)O4)[C@H](OC(=O)c1cc(O)c(O)c(O)c1)O[C@@H]2CO (stereo partly specified) [FUROSIN] | 38 | 33 | 4.15 | 1.4 | 4.30 | –
O=C(O[C@@H]1O[C@@H]2COC(=O)c3cc(O)c(O)c(O)c3-c3c(cc(O)c(O)c3O)C(=O)O[C@H]([C@H]1O)[C@@H]2O)c1cc(O)c(O)c(O)c1 [CORILAGIN] | 57 | 90 | 4.82 | 1 | 4.82 | –
Oc1cc(O)c2c(c1)O[C@@]1(c3ccc(O)c(O)c3)Oc3cc(O)c4c(c3[C@@H]2[C@H]1O)O[C@H](c1ccc(O)c(O)c1)[C@H](O)C4 [PROANTHOCYANIDIN A2] | 18 | 30 | < 4.60 | – | < 4.60 | –
O=C(OC[C@H]1O[C@@H](OC(=O)c2cc(O)c(O)c(O)c2)[C@H](OC(=O)c2cc(O)c(O)c(O)c2)[C@@H](OC(=O)c2cc(O)c(O)c(O)c2)[C@@H]1OC(=O)c1cc(O)c(O)c(O)c1)c1cc(O)c(O)c(O)c1 (stereo in doubt; 10) | 2 | – | – | – | – | –
O=C1c2c(O)cc(O)cc2O[C@H](c2ccc(O)c(O)c2)[C@H]1O [(+)-TAXIFOLIN] | 22 | 40 | 4.35 | 1 | 4.35 | –
O=C1OCC2OC(=O)c3cc(O)c(O)c(O)c3-c3c(O)c(O)c(O)c4c3C(=O)OC(C2OC(=O)c2cc(O)c(O)c(O)c2-c2c1cc(O)c(O)c2O)C1OC(=O)c2c-4c(O)c(O)c(O)c2[C@H]1O (stereo partly specified) | 45 | 90 | 4.82 | 0.9 | 4.80 | –
O=C1OCC2OC(=O)c3cc(O)c(O)c(O)c3-c3c(O)c(O)c(O)c4c3C(=O)OC(C2OC(=O)c2cc(O)c(O)c(O)c2-c2c1cc(O)c(O)c2O)C1OC(=O)c2c-4c(O)c(O)c(O)c2[C@@H]1[C@@]1(O)O[C@@H](CO)[C@@H](O)[C@H]1O (stereo partly specified) | 27 | 35 | 4.82 | 0.4 | 4.46 | –
O=C(O[C@@H]1O[C@H]2COC(=O)c3cc(O)c(O)c(O)c3-c3c(O)c(O)c(O)c(Oc4cc(C(=O)O[C@H]5O[C@H]6COC(=O)c7cc(O)c(O)c(O)c7-c7c(cc(O)c(O)c7O)C(=O)O[C@H]6[C@@H]6OC(=O)c7cc(O)c(O)c(O)c7-c7c(cc(O)c(O)c7O)C(=O)O[C@H]56)cc(O)c4O)c3C(=O)O[C@H]2[C@@H]2OC(=O)c3cc(O)c(O)c(O)c3-c3c(cc(O)c(O)c3O)C(=O)O[C@H]12)c1cc(O)c(O)c(O)c1 | 34 | 38 | 4.68 | 1.4 | 4.82 | –
O=C(O[C@@H]1O[C@@H]2COC(=O)c3cc(O)c(O)c(O)c3-c3c(cc(O)c(O)c3O)C(=O)O[C@H]([C@H]1OC(=O)c1cc(O)c(O)c(O)c1)[C@@H]2OC(=O)c1cc(O)c(O)c(O)c1)c1cc(O)c(O)c(O)c1 [PUNICAFOLIN] | 0 | 60 | 4.47 | 1.8 | 4.72 | –
O=C(OC[C@H]1OC(O)[C@@](O)(COC(=O)c2cc(O)c(O)c(O)c2)[C@@H]1O)c1cc(O)c(O)c(O)c1 (stereo partly specified) [HAMAMELITANNIN] | 16 | 40 | 4.35 | 0.9 | 4.30 | –
O=C1OCC2OC(=O)c3cc(O)c(O)c(O)c3-c3c(O)c(O)c(O)c4c3C(=O)OC(C2OC(=O)c2cc(O)c(O)c(O)c2-c2c1cc(O)c(O)c2O)C1OC(=O)c2c-4c(O)c(O)c(O)c2[C@@H]1O (stereo partly specified) | 40 | 90 | 4.82 | 1 | 4.82 | –
Oc1cc(O)c2c(c1)O[C@H](c1ccc(O)c(O)c1)[C@H](O)[C@H]2c1c(O)cc(O)c2c1O[C@@]1(c3ccc(O)c(O)c3)Oc3cc(O)c4c(c3[C@@H]2[C@H]1O)O[C@H](c1ccc(O)c(O)c1)[C@H](O)[C@H]4c1c(O)cc(O)c2c1O[C@H](c1ccc(O)c(O)c1)[C@H](O)C2 [CINNAMTANNIN B2] | 19 | 73 | < 4.60 | > 1.7 | 4.82 | –
O=C(O[C@@H]1[C@@H](c2c(O)cc(O)c3c2O[C@H](c2ccc(O)c(O)c2)[C@H](OC(=O)c2cc(O)c(O)c(O)c2)C3)c2c(O)cc(O)c([C@H]3c4c(O)cc(O)cc4O[C@H](c4ccc(O)c(O)c4)[C@@H]3OC(=O)c3cc(O)c(O)c(O)c3)c2O[C@@H]1c1ccc(O)c(O)c1)c1cc(O)c(O)c(O)c1 | 13 | 47 | < 4.60 | > 1.5 | 4.77 | –
O=C(/C=C/c1ccc(O)c2c1[C@H](C(=O)O[C@H](Cc1ccc(O)c(O)c1)C(=O)O)[C@@H](c1ccc(O)c(O)c1)O2)O[C@H](Cc1ccc(O)c(O)c1)C(=O)O [MAGNESIUM LITHOSPERMATE B] | 18 | 35 | < 4.60 | – | < 4.60 | –
O=C(O[C@@H]1Cc2c(O)cc(O)cc2O[C@@H]1c1ccc(O)c(O)c1)c1cc(O)c(O)c(O)c1 [EPICATECHIN GALLATE] | 5 | 40 | < 4.60 | – | < 4.60 | –
O=C(O)C1=C[C@@H](O)[C@@H](O)[C@H](OC(=O)c2cc(O)c(O)c(O)c2)C1 | 0 | 90 | 4.60 | 1.4 | 4.74 | –
O=C(O[C@@H]1[C@@H](c2c(O)cc(O)c3c2O[C@H](c2ccc(O)c(O)c2)[C@H](OC(=O)c2cc(O)c(O)c(O)c2)C3)c2c(O)cc(O)cc2O[C@@H]1c1ccc(O)c(O)c1)c1cc(O)c(O)c(O)c1 | 0 | 90 | < 4.60 | – | 4.85 | –
O=C1OCC2OC(=O)c3cc(O)c(O)c(O)c3-c3c(O)c(O)c(O)c4c3C(=O)OC(C2OC(=O)c2cc(O)c(O)c(O)c2-c2c1cc(O)c(O)c2O)C1OC(=O)c2c-4c(O)c(O)c(O)c2[C@@H]1c1c(O)cc(O)c2c1O[C@H](c1ccc(O)c(O)c1)[C@@H](O)C2 (stereo partly specified) | 24 | 88 | 4.82 | 3.8 | 5.40 | –
CC1(C)CC[C@]2(C(=O)O[C@@H]3O[C@H](CO)[C@@H](O)[C@H](O)[C@H]3O)CC[C@]3(C)C(=CCC4[C@@]5(C)C[C@@H](O)[C@@H]6OC(=O)c7cc(O)c(O)c(O)c7-c7c(cc(O)c(O)c7O)C(=O)OC[C@@]6(CO)C5CC[C@]43C)C2C1 (stereo partly specified) | 17 | 47 | 4.55 | 1.6 | 4.74 | –
Oc1cc(O)c2c(c1)O[C@H](c1ccc(O)c(O)c1)[C@H](O)[C@H]2c1c(O)cc(O)c2c1O[C@H](c1ccc(O)c(O)c1)[C@H](O)C2 [PROCYANIDIN B2] | 21 | 40 | < 4.60 | – | < 4.60 | –
O=C(OC[C@H]1O[C@@H](OC(=O)c2cc(O)c(O)c(O)c2)[C@H](OC(=O)c2cc(O)c(O)c(O)c2)[C@@H](OC(=O)c2cc(O)c(O)c(O)c2)[C@@H]1OC(=O)c1cc(O)c(O)c(O)c1)c1cc(O)c(O)c(O)c1 (stereo in doubt; 11) [PENTAGALLOYL GLUCOSE] | – | 65 | – | 2.5 | 4.74 | 4.35
